Where “and” joins values, the source holds several entries; their conditions need not be identical. Equal entries are not always repeated.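 96-well plates; 48 h exposure; 5 concentrations. Endpoints by linear interpolation between flanking doses. Not reached: highest tested concentration assigned. GI50 is the concentration that inhibits growth by half. TGI is the concentration that stops growth completely.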
Columns and labels:
Assay in all cases: NCI anticancer screen, dose series, 48 h
[1] = system: TK-10 renal
[2] = system: OVCAR-5 ovarian
[3] = system: SW-620 colon
[4] = system: SN12C renal
[5] = system: SF-539 CNS
[6] = system: A549 NSCLC
[7] = system: CAKI-1 renal
[8] = system: A498 renal
[9] = system: EKVX NSCLC
[10] = system: SNB-19 CNS
[11] = system: SK-MEL-2 melanoma
[12] = system: IGROV1 ovarian
[13] = system: MCF7 breast
[14] = system: HL-60(TB) leukemia

Row | Structure (SMILES) | TGI [1] | TGI [2] | TGI [3] | TGI [4] | TGI [5] | TGI [6] | TGI [7] | TGI [8] | TGI [9] | TGI [10] | TGI [11] | TGI [12] | TGI [13] | TGI [14] | GI50 [14] | GI50 [11] | GI50 [1] | GI50 [3] | GI50 [4]
1 | Cc1cccc2c1NC(=S)[C@@H]1CCCN1C2=O | > 100 µM | > 100 µM | > 100 µM | > 100 µM | > 100 µM | > 100 µM | > 100 µM | > 100 µM | > 100 µM | > 100 µM | > 100 µM | > 100 µM | > 100 µM |  |  |  |  |  | 
2 | CC[C@H]1OC([C@H](O)C/C=C\C#C[Si](C)(C)C)C/C=C\C[C@H]1O[Si](C)(C)C(C)(C)C (stereo partly specified) |  | > 100 µM | > 100 µM | > 100 µM |  | > 100 µM | > 100 µM | > 100 µM | > 100 µM | > 100 µM | > 100 µM | > 100 µM | > 100 µM |  |  |  |  |  | 
3 | CCC1C(c2cc(OC)c(OC)c(OC)c2)c2cc3c(cc2OC1N1CCOCC1)OCO3 (stereo unspecified) |  | 15.6 µM | 10.3 µM | 28.6 µM |  | 17.8 µM |  |  | 54.1 µM | 25 µM | > 100 µM | 17.4 µM | 15.5 µM |  |  |  |  |  | 
4 | N/C(=N/n1c(=S)[nH]c2ccccc2c1=O)Nn1c(=S)[nH]c2ccccc2c1=O | > 100 µM | > 100 µM | 38.6 µM |  | 56.2 µM | > 100 µM | 26.3 µM | > 100 µM | > 100 µM | > 100 µM | > 100 µM | > 100 µM | > 100 µM |  |  |  |  |  | 
5 | CC1(C)Oc2ccc3c(=O)cc(-c4ccc(F)cc4)oc3c2C1C(=O)O (stereo unspecified) | > 100 µM | > 100 µM |  | > 100 µM | > 100 µM | > 100 µM | 54.6 µM | > 100 µM | > 100 µM |  | > 100 µM | > 100 µM | > 100 µM |  |  |  |  |  | 
6 | C[C@H](O)C1CC(Cn2nnc3c(N)ncnc32)C1(C)C (stereo partly specified) | > 100 µM | > 100 µM | > 100 µM | > 100 µM | > 100 µM | > 100 µM | > 100 µM | > 100 µM | > 100 µM | > 100 µM | > 100 µM |  | > 100 µM |  |  |  |  |  | 
7 | CCOC(=O)CCC(NC(=O)c1ccc(N2CCN(c3c(C)nc(N)nc3N)CC2)cc1)C(=O)OCC (stereo unspecified) | > 100 µM | > 100 µM | > 100 µM | > 100 µM | > 100 µM | > 100 µM | > 100 µM | > 100 µM | > 100 µM | > 24.7 µM | > 100 µM | > 100 µM | > 100 µM |  |  |  |  |  | 
8 | Nc1nc(Cl)cc(Nc2cc(Cl)cc(Cl)c2)n1 | 45 µM | 76.7 µM | 41.1 µM | 40.7 µM | 33.9 µM | 58.9 µM | 48.2 µM | 44.3 µM | 45.7 µM | 47.5 µM | 38.1 µM | 35.4 µM | 41.6 µM |  |  |  |  |  | 
9 | c1cc2c(c(-c3c4ccccc4nc4ccccc34)c1)CC1(CC2)OCCO1 | > 100 µM | > 100 µM | > 100 µM | > 100 µM | > 100 µM | > 100 µM | > 100 µM | > 100 µM | > 100 µM | > 100 µM | > 100 µM | > 100 µM | > 100 µM |  |  |  |  |  | 
10 | CCC(=O)O[C@H]1CC[C@H]2[C@@H]3CCC4=C/C(=N/NC(=O)c5cccc6c(=O)c7ccccc7[nH]c56)CC[C@]4(C)[C@H]3CC[C@]12C | > 25 µM | > 25 µM | > 25 µM | > 25 µM | > 25 µM | > 25 µM |  | > 25 µM | > 25 µM | > 25 µM | > 25 µM | > 25 µM | > 25 µM |  |  |  |  |  | 
11 | COc1cc2c(c(OC)c1OC)-c1ccc(SC)cc1[C@H](OC(=O)c1ccccc1)CC2 | > 100 µM | > 100 µM | > 100 µM | > 78.2 µM | 0.0841 µM |  | > 100 µM |  | > 100 µM |  | > 100 µM | > 100 µM | > 33.2 µM | 0.487 µM |  |  |  |  | 
12 | COC(=O)c1c(C)cccc1CC1Cc2c(C)cccc2C1=O (stereo unspecified) | > 100 µM | > 100 µM | > 100 µM | > 100 µM | > 100 µM | > 100 µM | > 100 µM | 73.7 µM | > 100 µM | > 100 µM | 37.9 µM | > 100 µM |  | 45.5 µM |  |  |  |  | 
13 | CN(C)Cc1cc(N=Nc2ccccc2)cc(CN(C)C)c1O | > 100 µM | > 100 µM | > 100 µM | > 100 µM | > 100 µM | > 100 µM | > 100 µM | > 100 µM | > 100 µM | > 100 µM | > 100 µM | > 100 µM |  | 66.9 µM |  |  |  |  | 
14 | NC(=O)N1N=C2c3ccccc3SC[C@H]2[C@@H]1c1ccccc1 | 92.6 µM | 60.2 µM | > 100 µM | > 100 µM |  | > 100 µM |  | 76.9 µM | > 100 µM | > 100 µM |  | 68.4 µM |  | 55 µM |  |  |  |  | 
15 | COc1ccc(CC2NC(=O)/C=C/CC(C(C)C3OC3c3ccccc3)OC(=O)C(CC(C)C)OC(=O)C(C)CNC2=O)cc1Cl (stereo unspecified) | > 0.1 µM | > 0.1 µM | > 0.1 µM | > 0.1 µM | 4.43e-05 µM | > 0.1 µM | > 0.1 µM | 3.66e-05 µM |  | > 0.1 µM | > 0.1 µM |  | > 0.1 µM |  |  |  |  |  | 
16 | O=C(CSCC(=O)N/N=C\c1ccc(-c2ccccc2)cc1)N/N=C\c1ccc(-c2ccccc2)cc1 | 64.2 µM | 74.8 µM | 38.4 µM | 53.6 µM | 37.9 µM | 54.4 µM | > 100 µM |  | > 100 µM | > 100 µM | 83.4 µM | 29.2 µM | > 100 µM |  |  |  |  |  | 
17 | Cc1nnc2n1-c1ccccc1C(=S)N1CSCC21 (stereo unspecified) | > 100 µM | > 100 µM | > 100 µM | > 100 µM |  | > 100 µM | > 100 µM | > 100 µM | > 100 µM | > 100 µM | > 100 µM | > 100 µM | > 100 µM |  |  |  |  |  | 
18 | CC(=O)OC1c2ccccc2CCCCCCC12OCCO2 (stereo unspecified) | > 100 µM | > 100 µM | > 100 µM | > 100 µM | > 100 µM | > 100 µM | > 100 µM | > 100 µM |  | > 100 µM | > 100 µM | > 100 µM |  | > 100 µM |  |  |  |  | 
19 | COc1ccc2c(c1)c1c(n2CCN2CCCCC2)-c2ccccc2CC1 | 27.6 µM | 31.2 µM | 37.8 µM | 33.5 µM | 27.4 µM | 36.6 µM | 26.9 µM |  | 36.7 µM | 46.9 µM | 29.3 µM | 30.3 µM | 30.2 µM |  |  |  |  |  | 
20 | Cc1nc2c(sc3nc4ccccc4n32)c(=O)[nH]1 | > 100 µM | > 100 µM | > 100 µM |  | > 100 µM | > 100 µM | > 100 µM | > 100 µM | > 100 µM | > 100 µM | > 100 µM | > 100 µM | > 100 µM |  |  |  |  |  | 
21 | CC(C)=CCC/C(C)=C/CC/C(C)=C/CC/C(C)=C/CC/C(C)=C\CC/C(C)=C/CC/C(C)=C/CC/C(C)=C/Cc1cc(O)ccc1O | > 29.4 µM | 36.4 µM | > 100 µM | > 100 µM | 3.19 µM | > 22.6 µM | 0.703 µM | 3.51 µM | 8.83 µM | > 43.6 µM | 3.14 µM | 1.47 µM | 2.89 µM |  |  |  |  |  | 
22 | CC(C)=CCSC1CC2C(CC1(C)O)C2(C)C (stereo unspecified) | 32.3 µM and 30.8 µM | 28.2 µM and 30.1 µM | 35.1 µM and 33.3 µM | 32 µM and 29.6 µM | 32.3 µM and 29.6 µM | 24.1 µM and 30.2 µM | 28.3 µM and 25.5 µM | 31.4 µM and 36.2 µM | 28.3 µM and 31.4 µM | 34.2 µM and 31.8 µM | 44.5 µM and 24.7 µM | 31.3 µM and 33 µM |  | > 100 µM and 19.7 µM | 34.1 µM and 3.82 µM | 22.8 µM and 10.2 µM |  |  | 
23 | COc1ccc2c3c1OC1c4[nH]c5ccccc5c4CC4(O)C(C2)N(C)CCC314 (stereo unspecified) | 50.2 µM | > 100 µM | > 100 µM | > 100 µM |  | > 100 µM | > 100 µM | 31.6 µM | > 100 µM | > 100 µM | 39.5 µM | > 100 µM | 60.4 µM |  |  |  |  |  | 
24 | COc1ccc(C2S/C(=C\c3ccc(O)cc3)C(=O)N2NC(=O)Cc2ccccc2)cc1 (stereo unspecified) | > 100 µM | > 100 µM | > 100 µM | > 100 µM | > 100 µM | > 100 µM | > 100 µM | > 100 µM |  |  | > 100 µM | > 100 µM |  | > 100 µM |  |  |  |  | 
25 | CNC1=CC(=O)C2=C(C1=O)[C@H]1CC[C@]3(C)C(=O)CC[C@H]3[C@@H]1CC2 | > 100 µM | 51 µM | > 51.6 µM | > 52.7 µM | 32.3 µM | 49.9 µM | 33.6 µM | 43.4 µM | 29.9 µM | 40.8 µM | 17.1 µM | 16.1 µM | 47.5 µM |  |  |  |  |  | 
26 | CNC(=O)c1[nH]cnc1/N=N/N(C)N | > 100 µM | > 100 µM | > 100 µM | > 100 µM | > 100 µM | > 100 µM | > 100 µM | > 100 µM | > 100 µM |  | > 100 µM | > 100 µM |  |  |  |  |  |  | 
27 | CCN(CC)C(=S)SS(=O)(=O)c1ccc([N+](=O)[O-])cc1 | > 100 µM | > 100 µM | 37.1 µM | > 100 µM | 40 µM | > 100 µM | 34.4 µM | > 100 µM | > 100 µM | > 100 µM | > 100 µM |  |  |  |  |  | 43.1 µM | 17.9 µM | 26.9 µM

From PubChem BioAssay (NCI)
